Where two headings read alike, the source gives them in different places. Where a SMILES comes first, the peptide text is derived from it. Bridges are numbered along the chain shown (N, C = ends).
How the values were obtained:
[1] = biological target: T1, hKv1.1 (Homo sapiens, UniProt Q09470); test: Whole-cell patch-clamp of Kv1.1 currents in transiently transfected CHO cells; assay type: cell-based; conditions: for effect on Kv1.1 currents: 100 nM toxin; for Kd: this study, screened at 100 nM, read-out: Kd Values Kv1.1 (symbol)
T1 construct: host or cells: CHO cells, transient transfection (Lipofectamine 2000)
Description: (§1) Macroscopic Kv1.1 and Kv1.2 currents were measured in transiently transfected CHO cells. For Kv1.3 current recording, human T lymphocytes were activated by Phytohemagglutinin A (PHA) to increase Kv1.3 channel expression, and micro-pipettes were filled with Ca^2+-free solution to prevent KCa3.1 channel activation. K^+ currents were evoked by applying 15-ms-long depolarization pulses to +50 mV from a holding potential of −120 mV except for Kv1.2, as it has highly variable activation kinetics; therefore, 15–500 ms-long pulses were applied to maximize the open probability of Kv1.2 channel. CboK peptide toxins were dissolved in a freshly prepared extracellular solution and applied to the whole-cell patch-clamped cells using a micro perfusion system at 200 μL/min flow rate.
(§2) CHO cells were transiently transfected by using Lipofectamine 2000 kit (Invitrogen, Carlsbad, CA, USA), as per the manufacturer’s protocol with vector pCMV6-AC-GFP (cat# RG211000 and RC222200; OriGene Technologies, Rockville, MD, USA) encoding hKv1.1 (hKCNA1 gene) or hKv1.2 (hKCNA2 gene) ion channels. Cells were grown under standard conditions in an incubator at 37 °C and 5% CO2 for 24 h. GFP-positive transfected cells were identified by utilizing a Nikon TMS fluorescence microscope (Nikon, Tokyo, Japan) using bandpass filters of 455–495 nm and 515–555 nm for excitation and emission, respectively.
(§3) The patch-clamp technique was used for measuring whole-cell currents in voltage-clamped mode using standard protocols. Electrophysiological recordings were acquired by using Multiclamp 700B amplifier connected to a personnel computer with an Axon Digidata1440 digitizer (Molecular Devices, Sunnyvale, CA, USA). Pipettes were pulled from GC150F-15 borosilicate capillaries (Harvard Apparatus, Kent, UK) having 3−5 MΩ tip resistance in the bath solution. All current recordings were carried out at room temperature (20−25 °C) and only those currents were recorded and subjected to analyses when the leak current at holding potential was <5% of peak current at the test potential. Current traces were lowpass-filtered by utilizing the built-in analog four-pole Bessel filters of the amplifiers and were sampled at 20 kHz which is at least twice the filter cut-off frequency. A gravity-driven perfusion system was used to perfuse the cells with control and test solutions and excess fluid was removed continuously through vacuum suction. The extracellular solution (bath solution) contained 145 mM NaCl, 5.5 mM glucose, 5 mM KCl, 2.5 mM CaCl2, 1 mM MgCl2, and 10 mM HEPES, having pH of 7.35 and an osmolarity between 302 and 308 mOsM/L. Toxins were dissolved in bath solution at different molar concentrations and supplemented with 0.1 mg/mL of bovine serum albumin BSA (Sigma-Aldrich, Budapest, Hungary). The intracellular solution (pipette filling) was comprised of 140 mM KF, 2 mM MgCl2, 1 mM CaCl2, 10 mM HEPES, and 11 mM EGTA, with a pH of 7.22 and an osmolarity of ~295 mOsM/L.
(§4) Generally, to evoke the Kv1.xcurrents, 15-ms-long depolarization pulses to +50 mV from a holding potential of −120 mV were applied, and the current traces were recorded after every 15 s. However, in the case of Kv1.2, due to its variable activation kinetics, the duration of the depolarization pulse was set between 15 and 500 ms to attain the saturated peak current.

[2] = biological target: T2, Kv1.3 (Homo sapiens, UniProt P22001); test: Whole-cell patch-clamp of Kv1.3 currents in PHA-activated human T lymphocytes; assay type: cell-based
T2 construct: endogenous in cells
Description: as §1
Isochronal RCF data points obtained this way (isochronal RCF = I4ms/I4ms,0 where I4ms,0 and I4ms are the currents at 4 ms time point in the absence and presence of CboK peptides, respectively) at different toxin concentrations were fitted with the Hill equation to obtain concentration–response curves as shown in Figure 6H.
Human peripheral venous blood was acquired from anonymous healthy volunteers from the blood bank. Blood samples were collected by having approval from the Ethical Committee of the Hungarian Medical Research Council (36255-6/2017/EKU). PBMCs were separated by Histopaque 1077 (Sigma-Aldrich, Budapest, Hungary) separation technique, and isolated cells, at the density of 5 × 10^5 cells, were cultured in RPMI 1640 media (Gibco, Grand Island, NY, USA) supplemented with 10% FBS (Sigma-Aldrich, Budapest, Hungary), 2 mM L-glutamine, […], and […] penicillin in a humidified incubator at 37 °C and 5% CO2 for 3–6 days. A measure of 2, 5, or 10 μg/mL of Phytohemagglutinin A (PHA) (Sigma-Aldrich, Budapest, Hungary) was added in cultured cells to activate the PBMCs and upregulate the Kv1.3 expression.
as §3, with “suction.” for “suction. The extracellular solution (bath solution) contained 145 mM NaCl, 5.5 mM glucose, 5 mM KCl, 2.5 mM CaCl2, 1 mM MgCl2, and 10 mM HEPES, having pH of 7.35 and an osmolarity between 302 and 308 mOsM/L. Toxins were dissolved in bath solution at different molar concentrations and supplemented with 0.1 mg/mL of bovine serum albumin BSA (Sigma-Aldrich, Budapest, Hungary). The intracellular solution (pipette filling) was comprised of 140 mM KF, 2 mM MgCl2, 1 mM CaCl2, 10 mM HEPES, and 11 mM EGTA, with a pH of 7.22 and an osmolarity of ~295 mOsM/L.”

[3] = biological target: T3, hKv1.2 (Homo sapiens, UniProt P16389); test: Whole-cell patch-clamp of Kv1.2 currents in transiently transfected CHO cells; assay type: cell-based; conditions: for Kd / Hill coefficient H, Kv1.2 block: Hill fit of RCF vs toxin concentration, n ≥ 3; for Kd: cumulative application, pulses to +50 mV from -120 mV, read-out: Kd for Kv1.2
T3 construct: GFP (C); host or cells: CHO cells, transient transfection (Lipofectamine 2000)
Description: as §1, §2, §3, §4

[4] = biological target: Kv1.3; conditions: no reference given; read-out: Kd for Kv1.3 (positive control concentration equivalent to Kd); cited from earlier work
[5] = biological target: Kv1.1; design: method as in 3 sources, ref 40 (CoTx1), 32 (CoTx2) ||| ref 33 = [33]; PMID 26921461; doi:10.1016/j.toxicon.2016.02.017; 33. Olamendi-Portugal T. Bartok A. Zamudio-Zuñiga F. Balajthy A. Becerril B. Panyi G. Possani L.D. Isolation, chemical and functional characterization of several new K+-channel blocking peptides from ||| ref 33 (II-x toxins), 40 (CoTx1); conditions: no reference given; read-out: Kd for Kv1.1 (positive control concentration equivalent to Kd); cited from earlier work
[6] = biological target: Kv1.2; design: method as in 7 sources, ref 40 (CoTx1), 33 (II-x toxins), 45, 46 (Maurotoxin) ||| ref 32 (CoTx2), 33 (II-10.9), 34 (Ce3) ||| ref 33 (II-x toxins), 47, 48 (Pi4) ||| ref 33 (II-10.4), 32 (CoTx2) ||| ref 33 = [33]; PMID 26921461; doi:10.1016/j.toxicon.2016.02.017; 33. Olamendi-Portugal T. Bartok A. Zamudio-Zuñiga F. Balajthy A. Becerril B. Panyi G. Possani L.D. Isolation, chemical and functional characterization of several new K+-channel blocking peptides from ||| ...; conditions: cited from earlier work
Description: Macroscopic Kv1.1 and Kv1.2 currents were measured in transiently transfected CHO cells.

[7] = biological target: Kv1.2 (Homo sapiens) (UniProt P16389); conditions: cited from earlier work
Chain of Kv1.2 (Homo sapiens) (P16389 whole entry): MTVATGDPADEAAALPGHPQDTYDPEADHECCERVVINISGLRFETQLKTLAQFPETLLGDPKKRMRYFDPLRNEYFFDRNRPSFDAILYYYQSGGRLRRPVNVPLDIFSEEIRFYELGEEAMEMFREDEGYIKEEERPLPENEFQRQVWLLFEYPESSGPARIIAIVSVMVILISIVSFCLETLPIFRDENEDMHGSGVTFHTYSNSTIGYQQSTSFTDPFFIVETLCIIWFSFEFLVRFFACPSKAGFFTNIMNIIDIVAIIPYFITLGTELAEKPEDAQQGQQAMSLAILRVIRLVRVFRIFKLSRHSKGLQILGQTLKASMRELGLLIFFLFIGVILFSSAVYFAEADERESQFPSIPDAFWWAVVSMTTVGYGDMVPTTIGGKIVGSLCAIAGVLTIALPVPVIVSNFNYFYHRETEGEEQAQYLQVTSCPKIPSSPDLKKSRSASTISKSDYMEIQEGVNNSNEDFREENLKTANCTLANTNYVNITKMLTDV

T2 sequence (P22001 whole entry): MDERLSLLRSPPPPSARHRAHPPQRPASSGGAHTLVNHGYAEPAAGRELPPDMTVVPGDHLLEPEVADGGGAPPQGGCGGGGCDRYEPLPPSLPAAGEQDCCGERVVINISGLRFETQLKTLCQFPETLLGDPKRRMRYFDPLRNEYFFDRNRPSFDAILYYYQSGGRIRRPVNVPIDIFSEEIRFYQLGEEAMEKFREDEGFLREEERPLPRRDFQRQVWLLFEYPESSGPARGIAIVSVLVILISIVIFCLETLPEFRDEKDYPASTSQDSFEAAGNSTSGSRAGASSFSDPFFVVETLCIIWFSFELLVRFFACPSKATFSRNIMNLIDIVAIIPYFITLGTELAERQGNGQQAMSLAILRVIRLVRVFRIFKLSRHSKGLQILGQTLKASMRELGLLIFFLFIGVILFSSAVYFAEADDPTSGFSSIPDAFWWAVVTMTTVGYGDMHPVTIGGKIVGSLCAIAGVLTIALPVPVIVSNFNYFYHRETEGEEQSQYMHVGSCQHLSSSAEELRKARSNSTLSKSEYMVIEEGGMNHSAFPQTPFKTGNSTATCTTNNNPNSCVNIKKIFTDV
T1 sequence (Q09470 whole entry): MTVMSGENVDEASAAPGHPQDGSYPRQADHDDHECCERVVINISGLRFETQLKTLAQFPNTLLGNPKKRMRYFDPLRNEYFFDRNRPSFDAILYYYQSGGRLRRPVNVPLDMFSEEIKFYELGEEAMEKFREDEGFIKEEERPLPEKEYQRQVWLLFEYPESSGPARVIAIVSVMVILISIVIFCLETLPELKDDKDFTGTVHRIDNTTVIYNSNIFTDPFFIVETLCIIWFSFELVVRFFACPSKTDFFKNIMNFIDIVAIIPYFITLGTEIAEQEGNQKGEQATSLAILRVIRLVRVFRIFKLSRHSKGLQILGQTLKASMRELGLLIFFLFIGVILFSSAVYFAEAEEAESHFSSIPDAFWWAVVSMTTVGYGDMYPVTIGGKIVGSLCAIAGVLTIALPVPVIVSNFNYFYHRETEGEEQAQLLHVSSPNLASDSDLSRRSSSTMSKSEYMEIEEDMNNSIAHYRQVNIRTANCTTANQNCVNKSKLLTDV
T3 sequence (P16389 whole entry): as the sequence (P16389 whole entry) above
Chain of CoTx1 (O46028 29-60): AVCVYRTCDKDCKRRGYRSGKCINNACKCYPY

For `CC[C@H](C)[C@H](N)C(=O)N[C@@H](Cc1ccccc1)C(=O)N[C@H](C(=O)N[C@@H](CC(N)=O)C(=O)N[C@H](C(=O)N[C@@H](CCCCN)C(=O)N[C@H]1CSSC[C@@H]2NC(=O)[C@H](CCCCN)NC(=O)CNC(=O)CNC(=O)[C@H](C)NC(=O)[C@H](Cc3c[nH]cn3)NC(=O)[C@H](CCC(N)=O)NC(=O)CNC(=O)[C@H](Cc3ccccc3)NC(=O)[C@H](CCCNC(=N)N)NC(=O)[C@H](CC(=O)O)NC(=O)[C@H](CCCCN)NC(=O)[C@@H]3CSSC[C@@H](C(=O)N[C@@H](Cc4ccc(O)cc4)C(=O)N4CCC[C@H]4C(=O)O)NC(=O)[C@H](CCCCN)NC(=O)[C@H](CSSC[C@H](NC(=O)[C@H](CCC(N)=O)NC(=O)[C@H](CCC(N)=O)NC(=O)[C@@H]4CCCN4C(=O)[C@H](CC(C)C)NC(=O)[C@H](CO)NC1=O)C(=O)N[C@@H](CC(C)C)C(=O)N[C@@H](CCCNC(=N)N)C(=O)N1CCC[C@H]1C(=O)N3)NC(=O)[C@H](CCCCN)NC(=O)CNC(=O)[C@H](CC(N)=O)NC(=O)[C@H]([C@@H](C)CC)NC2=O)C(C)C)[C@@H](C)CC` [CboK5] (H-IFINVKCSLPQQCLRPCKDRFGQHAGGKCINGKCKCYP-OH; disulfide 7-29, 13-34, 17-36 (inferred); N-terminus and C-terminus assumed), the “effect on Kv1.1 currents” value [1] was “did not inhibit”, the Kd [1] was greater than 0.1 µM and the Kd ([2]; approximate, concentration-response data not obtained for CboK5, read-out: Kd for Kv1.3 (CboK5)) was 0.126 µM. The “inhibition of Kv1.2 current, representative traces” value ([3]; 1 nM toxin, steady-state block, representative cell (Figure 4B, 5A)) was ~ 75%, the “reversibility of Kv1.2 block” value ([3]; 1 nM toxin, wash with toxin-free control solution) was “completely reversed” and the Kd ([3]; equilibrium block) was 0.000376 µM. For the same compound, the “Hill coefficient H, Kv1.2 block” value [3] was 1.2.
With `CC[C@H](C)[C@@H]1NC(=O)[C@@H]2CSSC[C@H](NC(=O)[C@H](CCCCN)NC(=O)[C@@H](NC(=O)[C@H](CC(N)=O)NC(=O)[C@@H](NC(=O)[C@@H](NC(=O)[C@@H](N)[C@@H](C)O)[C@@H](C)O)[C@@H](C)CC)C(C)C)C(=O)N[C@@H](CO)C(=O)N[C@@H](CC(C)C)C(=O)N3CCC[C@H]3C(=O)N[C@@H](CCC(N)=O)C(=O)N[C@@H](CCC(N)=O)C(=O)N[C@H]3CSSC[C@H](NC(=O)[C@H](CCCCN)NC(=O)CNC(=O)[C@H](CC(N)=O)NC1=O)C(=O)N[C@@H](CCCCN)C(=O)N[C@H](C(=O)N[C@@H](Cc1ccc(O)cc1)C(=O)N1CCC[C@H]1C(=O)O)CSSC[C@H](NC(=O)[C@@H]1CCCN1C(=O)[C@H](CCCNC(=N)N)NC(=O)[C@H](CC(C)C)NC3=O)C(=O)N[C@@H](CCCCN)C(=O)N[C@@H](CC(=O)O)C(=O)N[C@@H](CCCNC(=N)N)C(=O)N[C@@H](Cc1ccccc1)C(=O)NCC(=O)N[C@@H](CCC(N)=O)C(=O)N[C@@H](Cc1c[nH]cn1)C(=O)N[C@@H](C)C(=O)NCC(=O)NCC(=O)N[C@@H](CCCCN)C(=O)N2` [CboK6] (H-TTINVKCSLPQQCLRPCKDRFGQHAGGKCINGKCKCYP-OH; disulfide 7-29, 13-34, 17-36 (inferred); N-terminus and C-terminus assumed) the “effect on Kv1.1 currents” value [1] was “does not block”, the Kd [1] was greater than 0.1 µM and the “Hill coefficient H, Kv1.3 block” value ([2]; Hill fit of isochronal RCF (4 ms), n ≥ 3) was 0.77. For the same compound, the Kd ([2]; Hill fit of isochronal RCF (current at 4 ms), 15-ms pulses to +50 mV from -120 mV, n ≥ 3, read-out: Kd for Kv1.3) was 0.16 µM, the Kd ([3]; equilibrium block) was 0.000585 µM and the “Hill coefficient H, Kv1.2 block” value [3] was 1.3.
In the case of `CC[N+](CC)(CC)CC` [TEA, tetraethylammonium, reference compound], the “reduction in Kv1.1 current by positive control” value ([1]; 0.3 mM TEA, equilibrium block) is given as “Approximately 50%”, the “reduction in Kv1.3 current by positive control” value ([2]; 10 mM TEA, equilibrium block) is given as “Approximately 50%” and the Kd [4] is given as 10000 µM. For the same compound, the Kd [5] was 300 µM.
In the case of “Charybdotoxin [ChTx, reference compound]”, the Kd ([6]; no reference given, read-out: Kd for Kv1.2 (positive control concentration equivalent to Kd)) is given as 0.014 µM and the “reduction in Kv1.2 current by positive control” value ([3]; 14 nM ChTx, equilibrium block) is given as “Approximately 50%”.
For CoTx1 (from UniProt O46028), the Kd [7] is given as 0.027 µM.
In the case of Maurotoxin, the “selectivity for Kv1.2 over Kv1.1, literature” value ([6]; 46 (Maurotoxin), 40 (CoTx1)) is given as ~ 56 fold, the “selectivity for Kv1.2 over Kv1.3, literature” value ([6]; 46 (Maurotoxin), 40 (CoTx1)) is given as 225 fold and the Kd ([6]; ref 40 (CoTx1), 33 (II-x toxins), 45, 46 (Maurotoxin), read-out: Kd for Kv1.2, literature) is given as 0.0008 µM.

Reference: PMC10467108, “Of Seven New K^+ Channel Inhibitor Peptides of Centruroides bonito, α-KTx 2.24 Has a Picomolar Affinity for Kv1.2” (Toxins, 2023)
